From patent US20170320870A1 (Medical Research Council Technology, priority 2009, published 2017)
Counter-ions that a name gives are not always drawn.

Molecular target: T1, LRRK2 wild type (recombinant human, catalytic domain amino acids 970-2527, GST-tagged) (Homo sapiens, UniProt Q5S007)
T1 construct: The wild type used was recombinant human, catalytic domain (amino acids 970-2527) GST-tagged, expressed in insect cells; GST; purchased Invitrogen Corporation PV4873; host or cells: insect cells
Experiment: LRRK2 wild type protein kinase assay ([γ-33P] ATP, peptide substrate […]), IC50
Assay type: biochemical
Conditions: LRRK2 (variant not given); read-out: Potency score, LRRK2 IC50
Source text: All LRRK2 protein kinases were of human origin and were sourced from Invitrogen Corporation (Carlsbad, Calif. 92008 USA) unless otherwise indicated. The active mutant used was recombinant human, catalytic domain (amino acids 970-2527) containing a G2019S mutation, GST-tagged, expressed in insect cells (Invitrogen Cat#PV4881). The wild type used was recombinant human, catalytic domain (amino acids 970-2527) GST-tagged, expressed in insect cells (Invitrogen Cat#PV4873). The kinase dead mutant used was recombinant human, catalytic domain (amino acids 970-2527) containing a D1994A mutation, GST-tagged, expressed in insect cells (Invitrogen Cat#PM4041AE). No special measures were taken to activate any of the kinases.
All assays were carried out at room temperature (˜21° C.) and were linear with respect to time and enzyme concentration under the conditions used. Assays were performed for 180 min in a 96 well format. LRRK2 was present at a concentration of approximately 5 nM. The enzyme was diluted and assayed in 50 mM Tris-HCl pH7.5, 0.1 mM EGTA, 1 mM DTT and 10 mM MgCl2. The concentration of magnesium chloride in the assay was 10 mM. The [γ-33P] […] The peptide substrate in the assay was […] at 100 μM.
The assays were initiated with Mg/ATP and stopped by the addition of 25 μl/well 50% orthophosphoric acid. Reactions were harvested onto Whatman P81 Unifilter Plates (Fisher Scientific. Loughborough, LE115RG, UK. Cat# FDU-105-020U) using a Tomtec harvester. (Tomtec Hamden, Conn. 06514. USA) Plates were counted using a Perkin Elmer Top Count NX7. (Perkin Elmer, Shelton Conn. 06484-4794 USA)
IC50 values of inhibitors were determined after carrying out assays at 10 different concentrations of each compound in duplicate.

T1 sequence (Q5S007 970-2527): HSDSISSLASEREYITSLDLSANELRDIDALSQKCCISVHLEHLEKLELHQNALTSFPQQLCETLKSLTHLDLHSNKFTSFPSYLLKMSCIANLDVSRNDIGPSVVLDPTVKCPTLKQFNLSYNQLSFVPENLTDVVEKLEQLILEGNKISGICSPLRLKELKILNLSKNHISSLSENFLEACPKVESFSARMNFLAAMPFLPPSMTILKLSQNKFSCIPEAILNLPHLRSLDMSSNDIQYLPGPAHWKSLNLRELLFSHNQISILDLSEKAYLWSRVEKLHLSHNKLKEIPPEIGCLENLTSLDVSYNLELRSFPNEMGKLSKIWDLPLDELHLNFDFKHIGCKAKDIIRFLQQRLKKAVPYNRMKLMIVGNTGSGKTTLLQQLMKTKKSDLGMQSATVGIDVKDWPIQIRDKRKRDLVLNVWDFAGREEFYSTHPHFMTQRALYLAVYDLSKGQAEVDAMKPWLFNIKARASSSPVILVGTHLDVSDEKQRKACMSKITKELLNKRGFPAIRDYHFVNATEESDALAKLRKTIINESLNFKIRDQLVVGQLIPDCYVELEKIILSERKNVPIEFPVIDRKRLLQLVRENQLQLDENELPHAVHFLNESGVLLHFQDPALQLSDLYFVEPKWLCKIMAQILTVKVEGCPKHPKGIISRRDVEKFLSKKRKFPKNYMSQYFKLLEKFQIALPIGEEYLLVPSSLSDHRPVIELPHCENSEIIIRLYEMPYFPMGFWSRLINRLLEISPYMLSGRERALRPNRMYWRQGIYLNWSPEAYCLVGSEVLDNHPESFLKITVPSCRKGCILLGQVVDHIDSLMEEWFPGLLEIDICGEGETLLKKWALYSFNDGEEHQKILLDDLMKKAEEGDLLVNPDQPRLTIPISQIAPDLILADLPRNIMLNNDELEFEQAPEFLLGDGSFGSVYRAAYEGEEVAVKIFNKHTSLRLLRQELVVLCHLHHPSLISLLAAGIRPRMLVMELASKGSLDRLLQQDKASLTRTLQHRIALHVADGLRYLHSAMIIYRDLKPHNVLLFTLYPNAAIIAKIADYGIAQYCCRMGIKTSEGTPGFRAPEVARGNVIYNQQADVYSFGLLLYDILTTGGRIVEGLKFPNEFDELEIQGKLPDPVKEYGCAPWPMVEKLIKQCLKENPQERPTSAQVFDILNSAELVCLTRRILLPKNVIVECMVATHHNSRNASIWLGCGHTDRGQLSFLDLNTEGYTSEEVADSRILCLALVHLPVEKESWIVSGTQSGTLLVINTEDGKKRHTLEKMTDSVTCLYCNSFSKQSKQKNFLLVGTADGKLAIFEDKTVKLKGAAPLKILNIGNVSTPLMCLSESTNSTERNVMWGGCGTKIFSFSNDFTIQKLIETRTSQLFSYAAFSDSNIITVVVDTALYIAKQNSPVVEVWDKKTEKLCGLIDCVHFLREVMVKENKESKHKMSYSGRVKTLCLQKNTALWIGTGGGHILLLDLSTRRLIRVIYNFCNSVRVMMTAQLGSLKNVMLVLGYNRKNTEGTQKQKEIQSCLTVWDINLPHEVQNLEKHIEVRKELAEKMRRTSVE

Structure (SMILES) | IC50
Cc1n[nH]c2ccnc(Nc3cccc(N4CCOCC4)c3)c12 [Example 80, (3-Methyl-1H-pyrazolo[4,3-c]pyridin-4-yl)-(3-morpholin-4-yl-phenyl)-aniline] | 1000 to 10000 nM
Cc1n[nH]c2ccnc(Nc3ccc4nc[nH]c4c3)c12 [Example 81, (3H-Benzimidazol-5-yl)-(3-methyl-1H-pyrazolo[4,3-c]pyridin-4-yl)-amine] | 100 to 1000 nM
Cc1n[nH]cc1Nc1nccc2[nH]nc(C)c12 [Example 82, (3-Methyl-1H-pyrazolo[4,3-c]pyridin-4-yl)-(3-methyl-1H-pyrazol-4-yl)-amine] | 1000 to 10000 nM
Cc1n[nH]c2ccnc(Nc3ccc(C(N)=O)cc3)c12 [Example 83, 4-(3-Methyl-1H-pyrazolo[4,3-c]pyridin-4-ylamino)-benzamide] | 100 to 1000 nM
COc1ccccc1Nc1nccc2[nH]nc(C)c12 [Example 84, (2-Methoxy-phenyl)-(3-methyl-1H-pyrazolo[4,3-c]pyridin-4-yl)-amine] | 100 to 1000 nM
Cc1n[nH]c2ccnc(Nc3ccc(N4CCOCC4)cc3)c12 [Example 85, (3-Methyl-1H-pyrazolo[4,3-c]pyridin-4-yl)-(4-morpholin-4-yl-phenyl)-amine] | 100 to 1000 nM
Cc1n[nH]c2ccnc(Nc3ccc(N4CCN(C)CC4)cc3)c12 [Example 86, [4-(4-Methyl-piperazin-1-yl)-phenyl]-(3-methyl-1H-pyrazolo[4,3-c]pyridin-4-yl)-amine] | 1000 to 10000 nM
Cc1n[nH]c2ccnc(Nc3ccc(-c4cnco4)cc3)c12 [Example 87, (3-Methyl-1H-pyrazolo[4,3-c]pyridin-4-yl)-(4-oxazol-5-yl-phenyl)-amine] | 100 to 1000 nM
Cc1n[nH]c2ccnc(Nc3cnn(C)c3)c12 [Example 88, (3-Methyl-1H-pyrazolo[4,3-c]pyridin-4-yl)-(1-methyl-1H-pyrazol-4-yl)-amine] | 100 to 1000 nM
Cc1n[nH]c2ccnc(Nc3ccc(N4CCCC4=O)cc3)c12 [Example 89, 1-[4-(3-Methyl-1H-pyrazolo[4,3-c]pyridin-4-ylamino)-phenyl]-pyrrolidin-2-one] | 100 to 1000 nM
Cc1n[nH]c2ccnc(Nc3ccc4cnn(C)c4c3)c12 [Example 90, (1-Methyl-1H-indazol-6-yl)-(3-methyl-1H-pyrazolo[4,3-c]pyridin-4-yl)-amine] | 100 to 1000 nM
Cc1n[nH]c2ccnc(N(C)CC(C)C)c12 [Example 91, Isobutyl-methyl-(3-methyl-1H-pyrazolo[4,3-cc]pyridin-4-yl)-amine] | 1000 to 10000 nM
Cc1n[nH]c2ccnc(Nc3cccc(N(C)C)c3)c12 [Example 92, N,N-Dimethyl-N′-(3-methyl-1H-pyrazolo[4,3-c]pyridin-4-yl)-benzene-1,3-diamine] | 1000 to 10000 nM
Cc1n[nH]c2ccnc(Nc3ccc4cn[nH]c4c3)c12 [Example 93, (1H-Indazol-6-yl)-(3-methyl-1H-pyrazolo[4,3-c]pyridin-4-yl)-amine] | 100 to 1000 nM
Cc1n[nH]c2ccnc(Nc3ccccn3)c12 [Example 94, (3-Methyl-1H-pyrazolo[4,3-c]pyridin-4-yl)-pyridin-2-yl-amine] | 1000 to 10000 nM
Cc1n[nH]c2ccnc(N(C)Cc3ccccc3)c12 [Example 95, Benzyl-methyl-(3-methyl-1H-pyrazolo[4,3-c]pyridin-4-yl)-amine] | 1000 to 10000 nM
Cc1n[nH]c2ccnc(Nc3ccc(-n4cncn4)cc3)c12 [Example 96, (3-Methyl-1H-pyrazolo[4,3-c]pyridin-4-yl)-(4-1,2,4-triazol-1-yl-phenyl)-amine hydrochloride salt] | 100 to 1000 nM
COc1ccc(CNc2nccc3[nH]nc(C)c23)c(OC)c1 [Example 97, (2,4-Dimethoxy-benzyl)-(3-methyl-1H-pyrazolo[4,3-c]pyridin-4-yl)-amine] | 1000 to 10000 nM
Cc1n[nH]c2ccnc(NC3CCN(Cc4ccccc4)CC3)c12 [Example 98, (1-Benzyl-piperidin-4-yl)-(3-methyl-1H-pyrazolo[4,3-c]pyridin-4-yl)-amine] | 1000 to 10000 nM
Cc1n[nH]c2ccnc(Nc3ccc4c(cnn4C)c3)c12 [Example 99, (1-Methyl-1H-indazol-5-yl)-(3-methyl-1H-pyrazolo[4,3-c]pyridin-4-yl)-amine] | 100 to 1000 nM
Cc1n[nH]c2ccnc(C(=O)NC3CCCCC3)c12 [Example 100, 3-Methyl-1H-pyrazolo[4,3-c]pyridine-4-carboxylic acid cyclohexylamide] | 1000 to 10000 nM
CC(=O)N1CCC(Nc2nccc3[nH]nc(C)c23)CC1 [Example 101, 1-[4-(3-Methyl-1H-pyrazolo[4,3-c]pyridin-4-ylamino)-piperidin-1-yl]-ethanone] | 100 to 1000 nM

Continued, values first:

IC50 | Structure (SMILES)
1000 to 10000 nM | COCCC(=O)N1CCC(Nc2nccc3[nH]nc(C)c23)CC1 [Example 102, 3-Methoxy-1-[4-(3-methyl-1H-pyrazolo[4,3-c]pyridin-4-ylamino)-piperidin-1-yl]-propan-1-one]
1000 to 10000 nM | Cc1n[nH]c2ccnc(NC3CCN(C(=O)CCN4CCOCC4)CC3)c12 [Example 103, 1-[4-(3-Methyl-1H-pyrazolo[4,3-c]pyridin-4-ylamino)-piperidin-1-yl]-3-morpholin-4-yl-propan-1-one]
1000 to 10000 nM | Cc1n[nH]c2ccnc(NC3CCN(C(=O)C4CCC4)CC3)c12 [Example 104, Cyclobutyl-[4-(3-methyl-1H-pyrazolo[4,3-c]pyridin-4-ylamino)-piperidin-1-yl]-methanone]
1000 to 10000 nM | COc1ccc(C(=O)N2CCC(Nc3nccc4[nH]nc(C)c34)CC2)cc1 [Example 105, (4-Methoxy-phenyl)-[4-(3-methyl-1H-pyrazolo[4,3-c]pyridin-4-ylamino)-piperidin-1-yl]-methanone]
1000 to 10000 nM | Cc1n[nH]c2ccnc(Nc3ccc(C(=O)NC4CCCC4)cc3)c12 [Example 106, N-Cyclopentyl-4-(3-methyl-1H-pyrazolo[4,3-c]pyridin-4-ylamino)-benzamide]
1000 to 10000 nM | Cc1n[nH]c2ccnc(Nc3ccc(C(=O)N(C)C4CCCCC4)cc3)c12 [Example 107, N-Cyclohexyl-N-methyl-4-(3-methyl-1H-pyrazolo [4,3-c]pyridin-4-ylamino)-benzamide]
1000 to 10000 nM | COCCNC(=O)c1ccc(Nc2nccc3[nH]nc(C)c23)cc1 [Example 108, N-(2-Methoxy-ethyl)-4-(3-methyl-1H-pyrazolo [4,3-c]pyridin-4-ylamino)-benzamide]
1000 to 10000 nM | Cc1n[nH]c2ccnc(Nc3ccc(C(=O)N(C)c4ccccc4)cc3)c12 [Example 109, N-Methyl-4-(3-methyl-1H-pyrazolo[4,3-c]pyridin-4-ylamino)-N-phenyl-benzamide]
100 to 1000 nM | Cc1n[nH]c2ccnc(Nc3ccc(C(=O)N4CCC(F)(F)CC4)cc3)c12 [Example 110, (4,4-Difluoro-piperidin-1-yl)-[4-(3-methyl-1H-pyrazolo[4,3-c]pyridin-4-ylamino)-phenyl]-methanone]
1000 to 10000 nM | COc1ccccc1NC(=O)c1ccc(Nc2nccc3[nH]nc(C)c23)cc1 [Example 111, N-(2-Methoxy-phenyl)-4-(3-methyl-1H-pyrazolo[4,3-c]pyridin-4-ylamino)-benzamide]
100 to 1000 nM | Cc1n[nH]c2ccnc(Nc3ccc(C(=O)N4CCOCC4)cc3)c12 [Example 112, [4-(3-Methyl-1H-pyrazolo[4,3-c]pyridin-4-ylamino)-phenyl]-morpholin-4-yl-methanone]
100 to 1000 nM | Cc1n[nH]c2ccnc(Nc3ccc(C(=O)N4CCCC4)cc3)c12 [Example 113, [4-(3-Methyl-1H-pyrazolo[4,3-c]pyridin-4-ylamino)-phenyl]-pyrrolidin-1-yl-methanone]
< 100 nM | Cc1n[nH]c2ccnc(OC3CCCCC3)c12 [Example 114, 4-Cyclohexyloxy-3-methyl-1H-pyrazolo[4,3-c]pyridine]
< 100 nM | Cc1n[nH]c2ccnc(OC3CCCC3)c12 [Example 115, 4-Cyclopentyloxy-3-methyl-1H-pyrazolo[4,3-c] pyridine]
1000 to 10000 nM | Cc1n[nH]c2ccnc(OC3CCN(C)CC3)c12 [Example 116, 3-Methyl-4-(1-methyl-piperidin-4-yloxy)-1H-pyrazolo[4,3-c] pyridine]
100 to 1000 nM | Cc1n[nH]c2ccnc(Oc3cccc(F)c3)c12 [Example 117, 4-(3-Fluoro-phenoxy)-3-methyl-1H-pyrazolo [4,3-c]pyridine]
100 to 1000 nM | Cc1n[nH]c2ccnc(OC3CCOCC3)c12 [Example 118, 3-Methyl-4-(tetrahydro-pyran-4-yloxy)-1H-pyrazolo[4,3-c]pyridine]
1000 to 10000 nM | Cc1n[nH]c2ccnc(OC3CCN(C(C)C)CC3)c12 [Example 119, 4-(1-Isopropyl-piperidin-4-yloxy)-3-methyl-1H-pyrazolo[4,3-c]pyridine]
100 to 1000 nM | Cc1n[nH]c2ccnc(Oc3ccc(-n4ccnc4)cc3)c12 [Example 120, 4-(4-Imidazol-1-yl-phenoxy)-3-methyl-1H-pyrazolo[4,3-c]pyridine]
